ChEMBL document CHEMBL3132778, “Structureactivity relationships of tetrahydrocarbazole derivatives as antifungal lead compounds” (Medchemcomm, 2013)
≈ marks a conversion by molar mass, not a printed value.

How the values were obtained:
Cryptococcus neoformans = test: Antifungal activity against Cryptococcus neoformans after 72 hrs by serial dilution method; format: functional
Candida tropicalis = test: Antifungal activity against Candida tropicalis after 24 hrs by serial dilution method; format: functional
Candida albicans = test: Antifungal activity against Candida albicans after 24 hrs by serial dilution method; format: functional
Kluyveromyces marxianus = test: Antifungal activity against Candida kefyr after 24 hrs by serial dilution method; format: functional
Aspergillus fumigatus = test: Antifungal activity against Aspergillus fumigatus after 7 days by serial dilution method; format: functional; conditions: 168 h
Candida parapsilosis = test: Antifungal activity against Candida parapsilosis after 24 hrs by serial dilution method; format: functional; conditions: Lodderomyces parapsilosis
Nannizzia gypsea = test: Antifungal activity against Microsporum gypseum by serial dilution method; format: functional
Trichophyton rubrum = test: Antifungal activity against Trichophyton rubrum by serial dilution method; format: functional
[1] = Inhibition of Saccharomyces cerevisiae NMT

SMILES	MIC80 (Cryptococcus neoformans)	MIC80 (Candida tropicalis)	MIC80 (Candida albicans)	MIC80 (Kluyveromyces marxianus)	MIC80 (Aspergillus fumigatus)	MIC80 (Candida parapsilosis)	MIC80 (Nannizzia gypsea)	MIC80 (Trichophyton rubrum)	IC50 [1]
O=C(c1ccc2c(c1)c1c(n2CCCNCc2ccccc2)CCCC1)c1nccs1	> 64 µg/mL	> 64 µg/mL	32 µg/mL (≈ 74.5 µM)	> 64 µg/mL	> 64 µg/mL	> 64 µg/mL	–	–	–
c1ccc(CNCCCn2c3c(c4cc(CNc5ccccc5)ccc42)CCCC3)cc1	> 64 µg/mL	> 64 µg/mL	32 µg/mL (≈ 75.5 µM)	> 64 µg/mL	> 64 µg/mL	> 64 µg/mL	–	–	–
Cc1c(C(=O)c2ccccn2)oc2cccc(OCCCNCc3cccnc3)c12	> 64 µg/mL	8 µg/mL (≈ 19.9 µM)	4 µg/mL (≈ 9.96 µM)	4 µg/mL (≈ 9.96 µM)	> 64 µg/mL	4 µg/mL (≈ 9.96 µM)	> 64 µg/mL	64 µg/mL (≈ 159 µM)	–
O=C(Oc1ccccc1)c1ccc2c(c1)c1c(n2CCCNCc2ccccc2)CCCC1	> 64 µg/mL	> 64 µg/mL	64 µg/mL (≈ 146 µM)	> 64 µg/mL	64 µg/mL (≈ 146 µM)	> 64 µg/mL	–	–	–
Cc1ccc2c(c1)c1c(n2CCCNCc2cccc(F)c2)CCCC1	64 µg/mL (≈ 183 µM)	> 64 µg/mL	> 64 µg/mL	> 64 µg/mL	> 64 µg/mL	64 µg/mL (≈ 183 µM)	–	64 µg/mL (≈ 183 µM)	–
COc1ccc(CNCCCn2c3c(c4cc(C)ccc42)CCCC3)cc1	16 µg/mL (≈ 44.1 µM)	8 µg/mL (≈ 22.1 µM)	32 µg/mL (≈ 88.3 µM)	16 µg/mL (≈ 44.1 µM)	16 µg/mL (≈ 44.1 µM)	16 µg/mL (≈ 44.1 µM)	–	8 µg/mL (≈ 22.1 µM)	–
O=C(Nc1ccccc1)c1ccc2c(c1)c1c(n2CCCNCc2ccccc2)CCCC1	64 µg/mL (≈ 146 µM)	> 64 µg/mL	32 µg/mL (≈ 73.1 µM)	> 64 µg/mL	> 64 µg/mL	> 64 µg/mL	–	–	–
CN1CCC(OC(=O)c2ccc3c(c2)c2c(n3CCCNCc3ccccc3)CCCC2)CC1	16 µg/mL (≈ 34.8 µM)	32 µg/mL (≈ 69.6 µM)	32 µg/mL (≈ 69.6 µM)	32 µg/mL (≈ 69.6 µM)	32 µg/mL (≈ 69.6 µM)	64 µg/mL (≈ 139 µM)	–	–	–
Cc1ccc2c(c1)c1c(n2CCCNCc2cccnc2)CCCC1	64 µg/mL (≈ 192 µM)	16 µg/mL (≈ 48 µM)	64 µg/mL (≈ 192 µM)	16 µg/mL (≈ 48 µM)	64 µg/mL (≈ 192 µM)	64 µg/mL (≈ 192 µM)	0.0625 µg/mL (≈ 0.187 µM)	4 µg/mL (≈ 12 µM)	–
Cc1ccc2c(c1)c1c(n2CCCNCc2ccc(F)cc2)CCCC1	8 µg/mL (≈ 22.8 µM)	8 µg/mL (≈ 22.8 µM)	64 µg/mL (≈ 183 µM)	16 µg/mL (≈ 45.7 µM)	32 µg/mL (≈ 91.3 µM)	32 µg/mL (≈ 91.3 µM)	–	8 µg/mL (≈ 22.8 µM)	–
Cc1ccc2c(c1)c1c(n2CC(O)CNCc2ccccc2)CCCC1 (stereo unspecified)	4 µg/mL (≈ 11.5 µM)	64 µg/mL (≈ 184 µM)	16 µg/mL (≈ 45.9 µM)	64 µg/mL (≈ 184 µM)	64 µg/mL (≈ 184 µM)	64 µg/mL (≈ 184 µM)	16 µg/mL (≈ 45.9 µM)	16 µg/mL (≈ 45.9 µM)	–
Cc1ccc2c(c1)c1c(n2CCCNc2ccccc2)CCCC1	16 µg/mL (≈ 50.2 µM)	16 µg/mL (≈ 50.2 µM)	64 µg/mL (≈ 201 µM)	16 µg/mL (≈ 50.2 µM)	16 µg/mL (≈ 50.2 µM)	16 µg/mL (≈ 50.2 µM)	0.0625 µg/mL (≈ 0.196 µM)	16 µg/mL (≈ 50.2 µM)	–
O=C(NCc1ccccc1)c1ccc2c(c1)c1c(n2CCCNCc2ccccc2)CCCC1	64 µg/mL (≈ 142 µM)	> 64 µg/mL	> 64 µg/mL	> 64 µg/mL	> 64 µg/mL	> 64 µg/mL	–	–	–
Cc1ccc2c(c1)c1c(n2CCCNCc2ccccc2Cl)CCCC1	> 64 µg/mL	> 64 µg/mL	> 64 µg/mL	> 64 µg/mL	> 64 µg/mL	> 64 µg/mL	–	> 64 µg/mL	–
Cc1ccc2c(c1)c1c(n2C[C@@H](O)CNC2CCCCC2)CCCC1	16 µg/mL (≈ 47 µM)	64 µg/mL (≈ 188 µM)	64 µg/mL (≈ 188 µM)	64 µg/mL (≈ 188 µM)	64 µg/mL (≈ 188 µM)	16 µg/mL (≈ 47 µM)	16 µg/mL (≈ 47 µM)	16 µg/mL (≈ 47 µM)	24 nM
Cc1ccc2c(c1)c1c(n2CCCNCc2ccccc2)CCCC1	1 µg/mL (≈ 3.01 µM)	32 µg/mL (≈ 96.2 µM)	16 µg/mL (≈ 48.1 µM)	32 µg/mL (≈ 96.2 µM)	32 µg/mL (≈ 96.2 µM)	16 µg/mL (≈ 48.1 µM)	0.0156 µg/mL (≈ 0.0469 µM)	4 µg/mL (≈ 12 µM)	–
Cc1ccc2c(c1)c1c(n2CCCNCc2ccc(Cl)cc2)CCCC1	> 64 µg/mL	64 µg/mL (≈ 174 µM)	> 64 µg/mL	16 µg/mL (≈ 43.6 µM)	16 µg/mL (≈ 43.6 µM)	32 µg/mL (≈ 87.2 µM)	–	> 64 µg/mL	–

SMILES	MIC80 (Cryptococcus neoformans)	MIC80 (Candida tropicalis)	MIC80 (Candida albicans)	MIC80 (Kluyveromyces marxianus)	MIC80 (Aspergillus fumigatus)	MIC80 (Candida parapsilosis)	MIC80 (Nannizzia gypsea)	MIC80 (Trichophyton rubrum)	IC50 [1]
Cc1ccc(CNCCCn2c3c(c4cc(C)ccc42)CCCC3)cc1	8 µg/mL (≈ 23.1 µM)	16 µg/mL (≈ 46.2 µM)	32 µg/mL (≈ 92.3 µM)	16 µg/mL (≈ 46.2 µM)	32 µg/mL (≈ 92.3 µM)	32 µg/mL (≈ 92.3 µM)	–	8 µg/mL (≈ 23.1 µM)	–
O=C(OCc1ccc2c(c1)c1c(n2CCCNCc2ccccc2)CCCC1)c1ccccc1	> 64 µg/mL	> 64 µg/mL	> 64 µg/mL	> 64 µg/mL	> 64 µg/mL	> 64 µg/mL	–	–	–
Cc1ccc(C(=O)c2ccc3c(c2)c2c(n3CCCNCc3ccccc3)CCCC2)nc1	> 64 µg/mL	> 64 µg/mL	64 µg/mL (≈ 146 µM)	> 64 µg/mL	> 64 µg/mL	> 64 µg/mL	–	–	–
O=C(Nc1ccc(Br)cc1)c1ccc2c(c1)c1c(n2CCCNCc2ccccc2)CCCC1	16 µg/mL (≈ 31 µM)	> 64 µg/mL	32 µg/mL (≈ 62 µM)	> 64 µg/mL	64 µg/mL (≈ 124 µM)	> 64 µg/mL	–	–	–
Cc1ccc2c(c1)c1c(n2CC(O)CNc2ccccc2)CCCC1 (stereo unspecified)	> 64 µg/mL	–	> 64 µg/mL	–	> 64 µg/mL	–	1 µg/mL (≈ 2.99 µM)	–	–
Cc1ccc2c(c1)c1c(n2CCCNC2CCCCC2)CCCC1	> 64 µg/mL	–	> 64 µg/mL	–	> 64 µg/mL	–	4 µg/mL (≈ 12.3 µM)	–	–
Cc1ccc2c(c1)c1c(n2CC(O)CNCc2cccnc2)CCCC1 (stereo unspecified)	64 µg/mL (≈ 183 µM)	–	> 64 µg/mL	–	64 µg/mL (≈ 183 µM)	–	16 µg/mL (≈ 45.8 µM)	–	–
O=C(OC1CCNCC1)c1ccc2c(c1)c1c(n2CCCNCc2ccccc2)CCCC1	32 µg/mL (≈ 71.8 µM)	8 µg/mL (≈ 18 µM)	32 µg/mL (≈ 71.8 µM)	64 µg/mL (≈ 144 µM)	> 64 µg/mL	32 µg/mL (≈ 71.8 µM)	–	–	–
O=C(OC1CCCCC1)c1ccc2c(c1)c1c(n2CCCNCc2ccccc2)CCCC1	> 64 µg/mL	> 64 µg/mL	64 µg/mL (≈ 144 µM)	> 64 µg/mL	> 64 µg/mL	> 64 µg/mL	–	–	–
OCc1ccc2c(c1)c1c(n2CCCNCc2ccccc2)CCCC1	> 64 µg/mL	> 64 µg/mL	> 64 µg/mL	> 64 µg/mL	> 64 µg/mL	> 64 µg/mL	–	–	–
CCOC(=O)c1ccc2c(c1)c1c(n2CCCNCc2ccccc2)CCCC1	> 64 µg/mL	> 64 µg/mL	> 64 µg/mL	> 64 µg/mL	> 64 µg/mL	> 64 µg/mL	–	–	–
Cc1ccc2c(c1)c1c(n2CCCNCc2ccc(Cl)cc2Cl)CCCC1	> 64 µg/mL	> 64 µg/mL	> 64 µg/mL	> 64 µg/mL	> 64 µg/mL	> 64 µg/mL	–	> 64 µg/mL	–
Cc1ccc2c(c1)c1c(n2CCCNCc2ccccc2F)CCCC1	> 64 µg/mL	32 µg/mL (≈ 91.3 µM)	> 64 µg/mL	16 µg/mL (≈ 45.7 µM)	16 µg/mL (≈ 45.7 µM)	> 64 µg/mL	–	64 µg/mL (≈ 183 µM)	–
O=C(c1ccc2c(c1)c1c(n2CCCNCc2ccccc2)CCCC1)c1ccccn1	64 µg/mL (≈ 151 µM)	> 64 µg/mL	64 µg/mL (≈ 151 µM)	> 64 µg/mL	> 64 µg/mL	> 64 µg/mL	–	–	–
Cc1ccc2c(c1)c1c(n2CCCNCc2cccc(Cl)c2)CCCC1	32 µg/mL (≈ 87.2 µM)	> 64 µg/mL	> 64 µg/mL	64 µg/mL (≈ 174 µM)	> 64 µg/mL	> 64 µg/mL	–	> 64 µg/mL	–
OC(Cn1cncn1)(Cn1cncn1)c1ccc(F)cc1F [FLUCONAZOLE]	1 µg/mL (≈ 3.27 µM)	2 µg/mL (≈ 6.53 µM)	0.5 µg/mL (≈ 1.63 µM)	4 µg/mL (≈ 13.1 µM)	> 64 µg/mL	4 µg/mL (≈ 13.1 µM)	1 µg/mL (≈ 3.27 µM)	1 µg/mL (≈ 3.27 µM)	–
